Results on four molecules are retold here after PMC8452302 (CPT: Pharmacometrics & Systems Pharmacology, 2021).

The target in series [1] is T1, BCRP (Homo sapiens, UniProt Q9UNQ0).
T1 sequence (Q9UNQ0 1-655): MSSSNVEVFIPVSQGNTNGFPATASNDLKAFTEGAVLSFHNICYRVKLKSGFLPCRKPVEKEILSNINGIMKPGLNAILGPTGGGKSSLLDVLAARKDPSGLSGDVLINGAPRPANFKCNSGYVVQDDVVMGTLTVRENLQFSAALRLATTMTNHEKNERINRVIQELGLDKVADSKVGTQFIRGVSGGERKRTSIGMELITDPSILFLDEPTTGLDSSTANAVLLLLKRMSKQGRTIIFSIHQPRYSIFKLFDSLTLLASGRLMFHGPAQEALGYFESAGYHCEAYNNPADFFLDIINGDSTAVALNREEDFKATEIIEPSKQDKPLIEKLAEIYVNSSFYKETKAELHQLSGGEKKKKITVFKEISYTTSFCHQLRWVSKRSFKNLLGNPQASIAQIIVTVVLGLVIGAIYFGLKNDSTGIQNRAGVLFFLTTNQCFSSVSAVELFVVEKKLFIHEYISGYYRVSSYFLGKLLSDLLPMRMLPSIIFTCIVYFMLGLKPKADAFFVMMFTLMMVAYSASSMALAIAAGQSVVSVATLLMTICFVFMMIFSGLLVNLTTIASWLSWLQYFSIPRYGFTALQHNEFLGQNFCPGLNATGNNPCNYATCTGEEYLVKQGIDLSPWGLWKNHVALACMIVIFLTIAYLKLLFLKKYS
The settings on record: read-out: BCRP Km; membrane vesicle assay; cited from earlier work.

The next series concerns the target T2, OATP1B3 (Homo sapiens, UniProt Q9NPD5).
T2 sequence (Q9NPD5 1-702): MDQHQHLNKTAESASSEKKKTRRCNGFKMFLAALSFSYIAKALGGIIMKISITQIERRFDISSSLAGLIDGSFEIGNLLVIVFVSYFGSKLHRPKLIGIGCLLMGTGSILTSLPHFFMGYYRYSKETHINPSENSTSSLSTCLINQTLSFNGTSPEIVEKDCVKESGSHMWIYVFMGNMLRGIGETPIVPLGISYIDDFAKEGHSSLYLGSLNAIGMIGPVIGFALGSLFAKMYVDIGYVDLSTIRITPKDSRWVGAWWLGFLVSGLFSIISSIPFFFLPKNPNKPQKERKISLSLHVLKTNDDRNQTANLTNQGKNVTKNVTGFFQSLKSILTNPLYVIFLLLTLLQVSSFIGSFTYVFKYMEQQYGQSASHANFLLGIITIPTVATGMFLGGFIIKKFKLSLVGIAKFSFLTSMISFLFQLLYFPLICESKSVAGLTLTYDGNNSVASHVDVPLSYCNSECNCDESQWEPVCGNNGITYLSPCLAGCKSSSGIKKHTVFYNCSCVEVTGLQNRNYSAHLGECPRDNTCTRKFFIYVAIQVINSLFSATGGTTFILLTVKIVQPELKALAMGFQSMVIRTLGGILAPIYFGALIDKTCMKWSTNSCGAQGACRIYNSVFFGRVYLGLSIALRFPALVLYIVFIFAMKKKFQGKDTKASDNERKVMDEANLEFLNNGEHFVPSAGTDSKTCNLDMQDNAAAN
Put plainly: OATP1B3-mediated transport of substrate. It is filed as in vitro ADME. The settings on record: OATP1B3-transfected HEK293 cells.

The conditions of series [2]: cited from earlier work.
For series [3], the target named is T1, BCRP. The series can be described thus: BCRP-mediated transport of substrate. It is filed as in vitro ADME. The settings on record: Estimated; optimized to recover ~40% Fa.
A short description of series [4]: Physicochemical PBPK model inputs.
In series [5] the test system is OATP1B1, OATP1B3, and OATP2B1. Put plainly: SLC-phenotyping of hepatic uptake. It is filed as in vitro ADME, human. Conditions: SLC-phenotyping methodology.
The next series can be described thus: Caco-2 permeability. In kind it is in vitro ADME. The settings on record: human. On the technique in general: Passage across Caco-2 layers is used to estimate intestinal permeability.
A short description of series [6]: Passive transport clearance. It is filed as in vitro ADME, human. The settings on record: Measured using SCHH.
A further series concerns the target T3, OATP2B1 (Homo sapiens, UniProt O94956).
T3 sequence (O94956 1-709): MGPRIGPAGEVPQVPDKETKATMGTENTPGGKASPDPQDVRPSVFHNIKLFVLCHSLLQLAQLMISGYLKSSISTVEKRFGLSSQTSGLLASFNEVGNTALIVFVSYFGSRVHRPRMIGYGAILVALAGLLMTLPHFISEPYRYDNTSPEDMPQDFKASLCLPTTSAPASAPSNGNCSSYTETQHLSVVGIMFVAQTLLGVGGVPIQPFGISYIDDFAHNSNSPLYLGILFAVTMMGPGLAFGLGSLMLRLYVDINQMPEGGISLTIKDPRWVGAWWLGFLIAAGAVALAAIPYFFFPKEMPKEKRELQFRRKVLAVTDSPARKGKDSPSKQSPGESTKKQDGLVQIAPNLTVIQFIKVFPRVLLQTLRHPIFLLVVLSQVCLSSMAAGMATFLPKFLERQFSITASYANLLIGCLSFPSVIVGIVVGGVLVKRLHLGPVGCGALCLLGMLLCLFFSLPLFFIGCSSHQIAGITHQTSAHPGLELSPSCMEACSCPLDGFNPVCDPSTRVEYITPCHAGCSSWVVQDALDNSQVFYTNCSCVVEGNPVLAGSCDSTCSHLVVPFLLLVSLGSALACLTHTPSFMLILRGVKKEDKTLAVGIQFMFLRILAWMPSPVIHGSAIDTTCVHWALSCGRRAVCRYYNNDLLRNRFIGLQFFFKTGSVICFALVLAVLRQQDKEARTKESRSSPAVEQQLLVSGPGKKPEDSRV
Put plainly: OATP2B1-mediated transport of substrate. In kind it is in vitro ADME. Conditions: Estimated; optimized to recover ~40% Fa.

Another series relates to BCRP (ABCG2 c.421C>A). Conditions: cited from earlier work.
Substrate in series [7]: CC(C)c1nc(N(C)S(C)(=O)=O)nc(-c2ccc(F)cc2)c1/C=C/[C@@H](O)C[C@@H](O)CC(=O)O
The series can be described thus: BCRP-mediated transport of substrate. In kind it is in vitro ADME, human. Conditions: other: membrane vesicles.

Substrate in series [8]: CC(C)c1nc(N(C)S(C)(=O)=O)nc(-c2ccc(F)cc2)c1/C=C/[C@@H](O)C[C@@H](O)CC(=O)O
Put plainly: OATP1B1-mediated transport of substrate. In kind it is in vitro ADME. Conditions: other: transfected HEK293 cells.

On to `CC(C)c1nc(N(C)S(C)(=O)=O)nc(-c2ccc(F)cc2)c1/C=C/[C@@H](O)C[C@@H](O)CC(=O)O` [Rosuvastatin, rosuvastatin], for which the Michaelis constant (Km) on BCRP [1] was 10.8 µM. For the same molecule, the Km on OATP1B3 is 28.3 µM. Moreover, in series [2], the “contribution of OAT3-mediated active secretion to renal clearance” value is reported as “greater than 90%”, the glomerular filtration rate is ~ 0.22 ml/min/kg and the renal clearance is recorded as ~ 2.6 ml/min/kg. For the same molecule, in series [2] (human, in vivo, po), the oral bioavailability is recorded as ~ 20%. Moreover, the “Intestinal BCRP Jmax” value on BCRP [3] is listed as 380 pmol/min. The molecule also came in with a pKa in series [4] of 4.33. Also, in [5], the “share of active hepatic uptake driven by OATP1B1, OATP1B3, and OATP2B1” value is reported as ~ 95%. This molecule came in with an apparent permeability (Papp) in the series “Caco-2 permeability” of 1.2 ×10⁻⁶ cm/s. In addition, the “CLPD basal (hepatic and renal)” value in series [6] was 1.1 µl/min/10^6. Besides, the “Intestinal OATP2B1 CLint,T” value at OATP2B1 was 0.002 µL/min.

With `O=C(O)c1cc(/N=N/c2ccc(S(=O)(=O)Nc3ccccn3)cc2)ccc1O` [sulfasalazine], in the series on BCRP (ABCG2 c.421C>A), the “increase in oral exposure, c.421A/A vs c.421C/C carriers” value was at most 3.5 fold.

B1: BCRP (Homo sapiens) (protein)
chain: MSSSNVEVFIPVSQGNTNGFPATASNDLKAFTEGAVLSFHNICYRVKLKSGFLPCRKPVEKEILSNINGIMKPGLNAILGPTGGGKSSLLDVLAARKDPSGLSGDVLINGAPRPANFKCNSGYVVQDDVVMGTLTVRENLQFSAALRLATTMTNHEKNERINRVIQELGLDKVADSKVGTQFIRGVSGGERKRTSIGMELITDPSILFLDEPTTGLDSSTANAVLLLLKRMSKQGRTIIFSIHQPRYSIFKLFDSLTLLASGRLMFHGPAQEALGYFESAGYHCEAYNNPADFFLDIINGDSTAVALNREEDFKATEIIEPSKQDKPLIEKLAEIYVNSSFYKETKAELHQLSGGEKKKKITVFKEISYTTSFCHQLRWVSKRSFKNLLGNPQASIAQIIVTVVLGLVIGAIYFGLKNDSTGIQNRAGVLFFLTTNQCFSSVSAVELFVVEKKLFIHEYISGYYRVSSYFLGKLLSDLLPMRMLPSIIFTCIVYFMLGLKPKADAFFVMMFTLMMVAYSASSMALAIAAGQSVVSVATLLMTICFVFMMIFSGLLVNLTTIASWLSWLQYFSIPRYGFTALQHNEFLGQNFCPGLNATGNNPCNYATCTGEEYLVKQGIDLSPWGLWKNHVALACMIVIFLTIAYLKLLFLKKYS
Turning to B1, in [7], the Michaelis-Menten constant (Km) was 3.2 µM.

B2: OATP1B1 (Homo sapiens) (protein)
chain: MDQNQHLNKTAEAQPSENKKTRYCNGLKMFLAALSLSFIAKTLGAIIMKSSIIHIERRFEISSSLVGFIDGSFEIGNLLVIVFVSYFGSKLHRPKLIGIGCFIMGIGGVLTALPHFFMGYYRYSKETNINSSENSTSTLSTCLINQILSLNRASPEIVGKGCLKESGSYMWIYVFMGNMLRGIGETPIVPLGLSYIDDFAKEGHSSLYLGILNAIAMIGPIIGFTLGSLFSKMYVDIGYVDLSTIRITPTDSRWVGAWWLNFLVSGLFSIISSIPFFFLPQTPNKPQKERKASLSLHVLETNDEKDQTANLTNQGKNITKNVTGFFQSFKSILTNPLYVMFVLLTLLQVSSYIGAFTYVFKYVEQQYGQPSSKANILLGVITIPIFASGMFLGGYIIKKFKLNTVGIAKFSCFTAVMSLSFYLLYFFILCENKSVAGLTMTYDGNNPVTSHRDVPLSYCNSDCNCDESQWEPVCGNNGITYISPCLAGCKSSSGNKKPIVFYNCSCLEVTGLQNRNYSAHLGECPRDDACTRKFYFFVAIQVLNLFFSALGGTSHVMLIVKIVQPELKSLALGFHSMVIRALGGILAPIYFGALIDTTCIKWSTNNCGTRGSCRTYNSTSFSRVYLGLSSMLRVSSLVLYIILIYAMKKKYQEKDINASENGSVMDEANLESLNKNKHFVPSAGADSETHC
Consider B2, for which the Michaelis-Menten constant (Km) in [8] was 3.8 µM.

For orientation: Km means the substrate concentration at which the rate is half of its maximum. Broadly, the pKa is the pH at which an ionisable group is half protonated. A lower pKa goes with a group that gives up its proton readily. As a reminder, the Papp is a coefficient for how fast a substance crosses the barrier.
